Assay results taken from US11091472B2, “PI-kinase inhibitors with anti-infective activity” (The Board of Trustees of the Leland Stanford Junior …, priority 2016, dated 2021).
Entries after “also recorded” stand apart in the source; their conditions may differ.

What was measured:
PI(4)P = assay: Immunofluorescence of intracellular PI-4 pools in cells; format: cell-based; details: Huh7.5 cells, uninfected or HCV-infected, 250 nm, 500 nM or 1 uM
Experimental: (§1) To further confirm its mechanism of action the effect of (1) on PI-4 levels was determined in cells using immunofluorescence to monitor the intracellular localized pools of PI-4. The effect of (1) on intracellular pools of PIP2 was tested, which were predicted to be similarly sensitive to inhibition using (1). […] Uninfected Huh7.5 cells or HCV-infected Huh7.5 cells were used. Cells were treated with […], 500 nM or 1 uM concentrations of (1) or vehicle control, and analyzed by immunofluorescence with antibodies to PI(4)P or PI(4,5)P2 along with an antibody to calnexin to control for ER morphology.

HCV = HCV standard replication assay; details: Hepatitis C virus, read-out: EC50 against HCV
HCV replicon = HCV replicon system
PI(4,5)P2 = assay: Immunofluorescence of intracellular PIP2 pools in cells; format: cell-based; details: Huh7.5 cells, uninfected or HCV-infected, 250 nm, 500 nM or 1 uM
Experimental: as §1

in vitro = format: cell-based
ER-localized calnexin = assay: Calnexin co-staining as control for ER morphology; format: cell-based; details: co-stained with antibody to calnexin
Experimental: as §1

HCV2a = assay: microbe, parasite or virus in culture; format: cell-based, HCV; details: Hepatitis C virus, Huh7.5, read-out: HCV2a EC50
PI3K p110a = PI3K p110a (Homo sapiens (Human), UniProt P42336); assay: PI3K p110a kinase assay; format: biochemical; details: kinase activity
Chain of PI3K p110a (P42336 whole entry): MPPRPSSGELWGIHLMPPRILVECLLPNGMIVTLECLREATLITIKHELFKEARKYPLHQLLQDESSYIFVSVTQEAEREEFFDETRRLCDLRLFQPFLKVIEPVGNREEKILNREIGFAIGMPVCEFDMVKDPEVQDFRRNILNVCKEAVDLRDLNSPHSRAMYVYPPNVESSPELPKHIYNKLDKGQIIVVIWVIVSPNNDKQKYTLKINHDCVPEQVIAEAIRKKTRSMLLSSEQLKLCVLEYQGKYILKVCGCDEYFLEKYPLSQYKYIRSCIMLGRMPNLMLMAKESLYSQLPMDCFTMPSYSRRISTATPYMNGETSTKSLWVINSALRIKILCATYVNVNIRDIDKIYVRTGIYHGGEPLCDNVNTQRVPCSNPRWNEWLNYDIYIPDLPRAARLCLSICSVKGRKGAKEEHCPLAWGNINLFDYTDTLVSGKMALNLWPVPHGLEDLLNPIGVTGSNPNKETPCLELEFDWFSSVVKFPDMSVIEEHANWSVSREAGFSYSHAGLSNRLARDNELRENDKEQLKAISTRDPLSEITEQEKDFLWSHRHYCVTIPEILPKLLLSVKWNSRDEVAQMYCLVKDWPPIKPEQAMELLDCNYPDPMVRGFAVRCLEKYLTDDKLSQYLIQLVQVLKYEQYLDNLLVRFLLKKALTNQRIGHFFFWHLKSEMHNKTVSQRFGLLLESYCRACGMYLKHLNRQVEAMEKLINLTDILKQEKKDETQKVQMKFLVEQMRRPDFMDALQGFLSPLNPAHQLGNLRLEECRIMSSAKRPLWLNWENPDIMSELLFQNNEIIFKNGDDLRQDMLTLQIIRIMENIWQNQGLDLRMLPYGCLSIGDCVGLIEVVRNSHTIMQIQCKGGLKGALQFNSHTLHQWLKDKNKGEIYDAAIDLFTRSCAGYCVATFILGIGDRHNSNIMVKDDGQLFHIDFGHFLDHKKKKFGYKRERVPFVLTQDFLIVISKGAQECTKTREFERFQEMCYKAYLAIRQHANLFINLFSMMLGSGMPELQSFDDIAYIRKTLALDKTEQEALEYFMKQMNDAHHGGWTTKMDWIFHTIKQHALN
Chain of PI3K p110a (P27986 whole entry partner): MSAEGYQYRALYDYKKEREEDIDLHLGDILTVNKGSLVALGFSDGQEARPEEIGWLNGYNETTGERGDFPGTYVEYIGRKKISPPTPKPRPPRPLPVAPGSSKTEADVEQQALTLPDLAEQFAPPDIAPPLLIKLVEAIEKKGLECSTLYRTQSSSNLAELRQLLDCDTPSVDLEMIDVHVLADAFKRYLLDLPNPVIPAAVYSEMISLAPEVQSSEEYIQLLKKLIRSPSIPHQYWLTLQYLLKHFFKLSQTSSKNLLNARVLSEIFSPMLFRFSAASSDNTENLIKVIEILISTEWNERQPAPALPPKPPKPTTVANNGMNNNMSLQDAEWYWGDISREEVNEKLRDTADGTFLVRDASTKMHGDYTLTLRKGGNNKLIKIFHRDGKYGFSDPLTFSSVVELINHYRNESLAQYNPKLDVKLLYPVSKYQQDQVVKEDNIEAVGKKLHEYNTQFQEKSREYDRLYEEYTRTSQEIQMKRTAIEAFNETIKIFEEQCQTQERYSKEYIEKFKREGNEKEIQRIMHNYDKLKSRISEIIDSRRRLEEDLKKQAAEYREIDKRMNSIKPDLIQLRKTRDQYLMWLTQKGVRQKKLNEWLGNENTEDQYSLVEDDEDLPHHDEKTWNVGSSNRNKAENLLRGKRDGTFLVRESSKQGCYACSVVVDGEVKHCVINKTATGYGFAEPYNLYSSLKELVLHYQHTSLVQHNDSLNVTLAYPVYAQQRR

PI3KC2B = PI3KC2B (Homo sapiens (Human), UniProt O00750); assay: PI3KC2B kinase assay; format: biochemical; details: kinase activity
Experimental: PI-kinase assay: Compounds are tested in C.1.1. PI kinase assays as described by Shokat et al., “A membrane capture assay for lipid kinase activity.” Nat. Protoc. 2007; 2(10):2459-66.
(§2) Selected compounds of Table 1 and 2 were prepared and tested for inhibition activity in a variety of kinase assays.

PI4KIIIB = PI4KIIIB (Bos taurus (Bovine), UniProt O02810); assay: PI4KIIIβ kinase assay (immunoprecipitated HA-tagged enzyme, [γ-32P]-ATP); format: biochemical; details: kinase activity
Chain of PI4KIIIB (O02810 whole entry): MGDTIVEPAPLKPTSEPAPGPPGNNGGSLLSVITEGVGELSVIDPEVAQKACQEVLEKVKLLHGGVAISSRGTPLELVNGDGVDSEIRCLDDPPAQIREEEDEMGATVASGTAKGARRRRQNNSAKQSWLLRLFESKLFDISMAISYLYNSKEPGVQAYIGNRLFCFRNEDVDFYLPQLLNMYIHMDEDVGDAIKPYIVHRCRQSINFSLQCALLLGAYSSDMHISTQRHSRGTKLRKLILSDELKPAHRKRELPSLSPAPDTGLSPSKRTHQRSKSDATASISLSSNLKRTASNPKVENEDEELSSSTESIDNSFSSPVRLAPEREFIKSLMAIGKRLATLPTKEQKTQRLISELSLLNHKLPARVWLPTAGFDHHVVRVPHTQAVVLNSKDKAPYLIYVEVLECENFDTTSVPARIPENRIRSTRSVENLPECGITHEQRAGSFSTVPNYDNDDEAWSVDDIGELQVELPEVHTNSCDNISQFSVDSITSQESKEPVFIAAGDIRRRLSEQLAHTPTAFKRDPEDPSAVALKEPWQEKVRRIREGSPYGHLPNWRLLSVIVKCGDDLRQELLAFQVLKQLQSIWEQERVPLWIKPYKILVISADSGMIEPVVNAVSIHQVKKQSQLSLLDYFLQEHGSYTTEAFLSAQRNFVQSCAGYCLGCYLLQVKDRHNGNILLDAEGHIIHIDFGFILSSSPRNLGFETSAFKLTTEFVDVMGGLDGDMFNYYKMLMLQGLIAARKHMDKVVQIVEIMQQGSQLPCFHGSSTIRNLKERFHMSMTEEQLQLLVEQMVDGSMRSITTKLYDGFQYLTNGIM

Cell toxicity (CC50) = format: cell-based; details: human, HuH-7 cells
PI3K p110g = PI3K p110g (Homo sapiens (Human), UniProt P48736); assay: PI3K p110g kinase assay; format: biochemical; details: kinase activity
Chain of PI3K p110g (P48736 whole entry): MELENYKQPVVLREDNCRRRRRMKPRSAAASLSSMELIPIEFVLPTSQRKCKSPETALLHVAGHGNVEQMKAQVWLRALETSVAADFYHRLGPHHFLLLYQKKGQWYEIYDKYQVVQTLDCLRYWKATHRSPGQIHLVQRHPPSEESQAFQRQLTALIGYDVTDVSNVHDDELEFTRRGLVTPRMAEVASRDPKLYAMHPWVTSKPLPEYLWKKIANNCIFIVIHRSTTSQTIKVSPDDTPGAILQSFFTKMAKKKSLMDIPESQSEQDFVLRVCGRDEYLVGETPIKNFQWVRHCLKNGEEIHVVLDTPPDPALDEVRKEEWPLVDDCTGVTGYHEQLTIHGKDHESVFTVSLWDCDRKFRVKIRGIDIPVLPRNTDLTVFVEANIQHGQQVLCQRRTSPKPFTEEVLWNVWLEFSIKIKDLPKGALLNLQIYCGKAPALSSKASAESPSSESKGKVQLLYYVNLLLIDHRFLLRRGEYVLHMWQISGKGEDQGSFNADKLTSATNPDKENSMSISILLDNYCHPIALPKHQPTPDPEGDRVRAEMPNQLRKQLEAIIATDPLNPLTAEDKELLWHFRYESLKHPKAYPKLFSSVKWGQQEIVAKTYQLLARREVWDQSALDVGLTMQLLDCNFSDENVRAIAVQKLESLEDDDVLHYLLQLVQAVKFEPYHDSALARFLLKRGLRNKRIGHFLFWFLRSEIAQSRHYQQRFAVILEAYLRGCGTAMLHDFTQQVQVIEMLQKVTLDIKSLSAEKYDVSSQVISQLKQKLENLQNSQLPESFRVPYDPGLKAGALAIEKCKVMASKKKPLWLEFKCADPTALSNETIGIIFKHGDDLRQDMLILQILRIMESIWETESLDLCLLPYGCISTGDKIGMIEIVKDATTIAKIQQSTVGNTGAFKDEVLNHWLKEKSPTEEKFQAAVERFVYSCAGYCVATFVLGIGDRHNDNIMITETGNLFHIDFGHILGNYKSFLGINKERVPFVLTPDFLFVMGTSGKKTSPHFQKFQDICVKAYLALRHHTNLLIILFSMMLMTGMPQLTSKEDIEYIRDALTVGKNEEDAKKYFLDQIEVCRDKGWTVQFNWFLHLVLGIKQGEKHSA

PI3KC2G = PI3KC2G (Homo sapiens (Human), UniProt O75747); assay: PI3KC2G kinase assay; format: biochemical; details: kinase activity
Experimental: PI-kinase assay: Compounds are tested in C.1.1. PI kinase assays as described by Shokat et al., “A membrane capture assay for lipid kinase activity.” Nat. Protoc.
as §2

Ebola = assay: microbe, parasite or virus in culture; format: cell-based; details: Zaire ebolavirus, read-out: Ebola EC50
HRV = assay: Rhinovirus antiviral assay; format: cell-based; details: Human rhinovirus sp.
NV (GT1) = NV (GT1) cell based antiviral assay
Experimental: Compounds of interest were tested in a variety of cell based assays for antiviral activity.

[1] = test system: Adenovirus 5 (Adenoid 75); assay: Adenovirus 5 cell based antiviral assay; details: Human mastadenovirus C
Enterovirus 71 = Enterovirus 71 cell based antiviral assay; details: Enterovirus A
Poliovirus (WM-3) = assay: microbe, parasite or virus in culture; format: cell-based; details: Enterovirus C, read-out: Poliovirus (WM-3) EC50 (uM)
PI4KIIIA = PI4KIIIA (Homo sapiens (Human), UniProt P42356); assay: PI4KIIIα kinase assay (immunoprecipitated HA-tagged enzyme, [γ-32P]-ATP); format: biochemical; details: kinase activity
MERS coronavirus = assay: microbe, parasite or virus in culture; format: cell-based; details: Middle East respiratory syndrome-related coronavirus, read-out: MERS coronavirus EC50 (uM)
Enterovirus 68 = Enterovirus 68 cell based antiviral assay; details: Enterovirus D
EV71 = EV71 antiviral assay; format: cell-based; details: Enterovirus A
Dengue virus 2 = Dengue virus 2 cell based antiviral assay
Coxsackie virus B3 = Coxsackie virus B3 cell based antiviral assay; details: Enterovirus B
Influenza A virus H1N1 = Influenza A virus H1N1 cell based antiviral assay

SMILES	EC50 (HCV2a) [nM]	IC50 (PI3K p110a) [nM]	IC50 (PI4KIIIB) [nM]	CC50 (Cell toxicity (CC50)) [nM]	IC50 (PI3K p110g) [nM]	EC50 [1] [nM]	EC50 (Enterovirus 71) [nM]	EC50 (Poliovirus (WM-3)) [µM]	EC50 (MERS coronavirus) [µM]	EC50 (Enterovirus 68) [nM]	EC50 (Dengue virus 2) [nM]	EC50 (Coxsackie virus B3) [nM]	EC50 (Influenza A virus H1N1) [nM]	other results
COc1ccc(-c2sc(NC(=O)C3CCCC3)nc2C)cc1S(=O)(=O)Nc1ccc(O)cc1 [Compound 1]														effect on PI-4 (PI(4)P) levels in cells (PI(4)P): dose-dependent decrease; also recorded: decreases; EC50 (HCV): 365 nM; selection of resistance (HCV replicon): resistance was not able to be selected; effect on intracellular pools of PIP2 (PI(4,5)P2) (PI(4,5)P2): dose-dependent decrease; also recorded: decreases; CC50 (in vitro): > 10000 nM; effects on the ER (ER-localized calnexin): absence of any detectable effects on the ER
COc1ccc(-c2sc(NC(=O)CC3CCCC3)nc2C)cc1S(=O)(=O)Nc1ccc(O)cc1 [Compound S-1]	1 to 100	> 10000	< 100	> 10000	> 10000									IC50 (PI3KC2B): > 10000 nM; IC50 (PI3KC2G): < 100 nM
COc1ccc(-c2sc(NCC3CCCCC3)nc2C)cc1S(=O)(=O)Nc1cccc(C(C)(C)C)c1 [Compound S-32]	1000 to 10000			> 10000										EC50 (Ebola): 1000 to 10000 nM; EC50 (HRV): < 1 nM
COc1ccc(-c2sc(NC3CCCCCC3)nc2C)cc1S(=O)(=O)Nc1c(C)cccc1C [Compound S-98]	1000 to 10000	> 10000	< 100	> 10000	> 10000	> 10000	1 to 100	0.001 to 0.1	> 10	< 1	> 10000	1 to 100	> 10000	EC50 (NV (GT1)): 1000 to 10000 nM; EC50 (HRV): < 1 nM; IC50 (PI4KIIIA): > 10000 nM; EC50 (EV71): < 1 nM
COc1ccc(-c2sc(NC(=O)CC3CCOCC3)nc2C)cc1S(=O)(=O)Nc1ccc(O)cc1 [Compound S-227]	1 to 100	> 10000	< 100	> 10000	> 10000	> 10000	1 to 100	0.001 to 0.1	> 10	< 1	> 10000	1 to 100	> 10000	EC50 (NV (GT1)): 100 to 1000 nM; EC50 (Ebola): 100 to 1000 nM; IC50 (PI3KC2B): > 10000 nM; IC50 (PI3KC2G): 1000 to 10000 nM
COc1ccc(-c2sc(NC(C)C3CCOCC3)nc2C)cc1S(=O)(=O)Nc1ccccc1Cl (centres unmarked) [Compound S-316]						> 10000	1 to 100	0.1 to 1	1 to 10	1 to 100	1000 to 10000	1 to 100	1000 to 10000	EC50 (HRV; Table 5): 1 to 100 nM; EC50 (EV71; Table 5): 1 to 100 nM
COc1ccc(-c2sc(NC(C)C3CCOCC3)nc2C)cc1S(=O)(=O)NC1CCC(O)CC1 (centres unmarked) [Compound S-328]						> 10000	1 to 100	0.001 to 0.1	> 10	1 to 100	> 10000	1 to 100	> 10000	EC50 (HRV; Table 5): 1 to 100 nM; EC50 (EV71; Table 5): 1 to 100 nM
